# Test system: patients with advanced solid tumors
# Experiment: Dose-limiting toxicities, MTD and RP2D determination (BLRM-guided dose escalation)
# Assay type: in vivo, human
# Text: This was a phase I, open-label, dose-escalation study of single-agent TAK-931. Dose escalation of TAK-931 was cohort based with an adaptive design using Bayesian logistic regression modeling (BLRM) with pharmacokinetic guidance. BLRM also guided MTD estimation from the second dose. Patients were enrolled in one of four dosing schedules (A, B, D, or E; Supplementary Fig. S1) to receive TAK-931. Two additional schedules were planned (C and F) but no patients were enrolled. Schedule A included an initial accelerated escalation phase. TAK-931 was administered once daily for 14 days in 21-day cycles starting at 30 mg, which doubled until a cycle 1 dose-limiting toxicity (DLT) was observed, when 2 patients experienced grade ≥2 treatment-related toxicity, or when maximum geometric mean plasma concentration (Cmax) for the cohort reached or exceeded 800 ng/mL [threshold for off-target adverse effects (hypotension) in animal toxicology studies]; then dose escalation transitioned to modified Fibonacci escalation steps. In schedule B (based on experience with schedule A), patients received TAK-931 once daily or twice daily for 7 days on, 7 days off in a 28-day cycle starting at 60 mg. In schedule D, patients received TAK-931 once daily starting at 20 mg in 21-day cycles; BLRM was not applied but further adjustments were dependent on observed safety, pharmacokinetics, and pharmacodynamics. In schedule E, patients received TAK-931 once daily for 2 days on, 5 days off starting at 100 mg in 21-day cycles. A safety expansion was permitted once MTD had been determined. Prophylactic growth factors were permitted in all schedules to manage severe and/or febrile neutropenia. TAK-931 treatment continued until unacceptable toxicity, disease progression, or patient withdrawal.
# DLTs included: cycle 1 grade ≥3 hematologic and non-hematologic events or grade 2 non-hematologic events considered by the investigator to be TAK-931-related, grade 2 ejection fraction decrease, >2 weeks delay in initiating cycle 2 (1 week for schedules D and E), and >50% TAK-931 dose reduction in cycle 1 due to treatment-related adverse events (AEs; see Supplementary Materials and Methods for full DLT criteria). Toxicity was evaluated by NCI Common Terminology Criteria for Adverse Events (version 4.03). Tumor response was measured using the RECIST (version 1.1) ([16]). Serial blood samples for pharmacokinetic analysis were collected during cycle 1 on days 1 and 7 (schedule B), 1 and 8 (schedules A and D), or 1 and 9 (schedule E). Pharmacokinetic parameters were estimated from concentration–time profiles using noncompartmental methods with WinNonlin® Phoenix™ version 8.1 (Certara, Princeton, NJ). pMCM2 was detected semiquantitatively by IHC of histologic sections of formalin-fixed, paraffin-embedded skin and tumor biopsies using anti-pMCM2 (3378-1, Epitomics Inc.; ref. [15]). Quantitative image analysis determined pMCM2 levels as “histologic score nuclei (H-score).” Skin punch biopsies (2–4 mm) were obtained during screening or predose on cycle 1, day 1 and for patients in schedules A, B, and D, postdose on any drug dosing day after 3 consecutive dosing days in cycle 1. A postdose skin biopsy was obtained on day 9 in schedule E. Fresh tumor biopsy pairs were collected predose and postdose on any dosing day after the completion of 3 consecutive dosing days in cycle 1 from patients who received doses considered to have biological effect.
# A dose-limiting toxicity (DLT) was defined as any of the following events that occurred during cycle 1 and were considered by the investigator to be related to TAK-931:
# Grade 4 neutropenia (ANC <500 cells/mm^3) lasting >7 consecutive days; if myeloid growth factors were used, the event was considered a DLT irrespective of the duration
# Grade ≥3 neutropenia (ANC <1000 cells/mm^3) with fever and/or infection, where fever was defined as a single temperature of >38.3°C or sustained temperature of ≥38°C for >1 hour […]
smiles,measurement,setting,value
"Cc1[nH]ncc1-c1cc2nc([C@@H]3CC4CCN3CC4)[nH]c(=O)c2s1 [TAK-931, simurosertib]",Recommended phase II dose,once daily days 1–14 in 21-day cycles,50 mg
same,Patients with DLTs (grade 4 neutropenia),schedule A,2 patients
same,Patients with DLT of grade 4 neutropenia lasting >3 days,"schedule A, 60 mg",2 of 3
same,Maximum tolerated dose (MTD),schedule A: once daily days 1–14 of 21-day cycle,50 mg
same,Patients with DLT of grade 3 febrile neutropenia,schedule B,3 n
same,Patients with DLT of grade 4 neutropenia,schedule B,1 n
same,Patients with DLTs,schedule B,4 patients
same,Patients with DLT of grade 3 febrile neutropenia,"schedule B, 80 mg",2 of 9
same,Patients with DLT of grade 4 neutropenia lasting >7 days,"schedule B, 100 mg",One of 6
same,Patients with DLT of grade 3 febrile neutropenia,"schedule B, 120 mg",one of six
same,Maximum tolerated dose (MTD),schedule B: days 1–7 and 15–21 of 28-day cycle,100 mg
same,Patients with DLT of grade 4 neutropenia,"schedule D, 40 mg",1 patient
same,Patients with DLT of grade 3 febrile neutropenia,"schedule E, 150 mg",a second patient
same,Patients with DLT of grade 4 neutropenia,"schedule E, 150 mg",1 patient
